From paper PMC9085577, “Discovery of a Potent and Orally Active Dual GPBAR1/CysLT1R Modulator for the Treatment of Metabolic Fatty Liver Disease” (Frontiers in Pharmacology, 2022)

System: liver transcriptome
Test: AmpliSeq liver transcriptome of HFD-F mice
Assay type: in vivo
Source text: C57BL/6J male mice were fed a high fat diet (HFD) containing 59 KJ% fat plus 1% cholesterol, w/o sugar (ssniff ® EF R/M acc. D12330 mod. 22,7 ME/kg) and fructose (HFD-F) in drinking water (42 g/L), or normal chow diet for 61 days. Food intake was estimated as the difference of weight between the offered and the remnant amount of food at 3-days intervals. The food was provided as pressed pellets and the residual spillage was not considered. After 7 days, HFD-F mice were randomized to receive HFD-F alone or in combination with compound 2 (30 mg/kg/day) by gavage until the end of the experiment. Doses of each agent were chosen according to previously published data. Mice were housed under controlled temperature (22°C) and photoperiods (12:12-h light/dark cycle), allowed unrestricted access to standard mouse chow and tap water. The experimental protocol was approved by the Animal Care and Use Committee of the University of Perugia and by the Italian Minister of Health and Istituto Superiore di Sanità (Italy) and was in agreement with the European guidelines for use of experimental animals (permission n. 583/2017-PR). The general health of the animals was monitored daily by the Veterinarian in the animal facility. At the day of sacrifice, fed mice were deeply anesthetized with a mixture of tiletamine hypochloride and zolazepam hypochloride/xylazine at a dose of 50/5 mg/kg and sacrificed before 12 a.m.
High-quality RNA was extracted from mice livers, using the Direct-zol™ RNA MiniPrep w/Zymo-Spin™ IIC Columns (Zymo Research, Irvine, CA) according to the manufacturer’s instructions. RNA quality and quantity were assessed with the Qubit® RNA HS Assay Kit and a Qubit 3.0 fluorometer (Invitrogen, Carlsbad, CA) followed by agarose gel electrophoresis. Libraries were generated using the Ion AmpliSeq™ Transcriptome Mouse Gene Expression Core Panel and Chef-Ready Kit (Comprehensive evaluation of AmpliSeq transcriptome, a whole transcriptome RNA sequencing methodology) (Thermo Fisher Scientific, Waltham, MA). Briefly, 10 ng of RNA was reverse transcribed with SuperScript™ Vilo™ cDNA Synthesis Kit (Thermo Fisher Scientific, Waltham, MA) before library preparation on the Ion Chef™ instrument (Thermo Fisher Scientific, Waltham, MA). The resulting cDNA was amplified to prepare barcoded libraries using the Ion Code™ PCR Plate, and the Ion AmpliSeq™ Transcriptome Mouse Gene Expression Core Panel (Thermo Fisher Scientific, Waltham, MA), Chef-Ready Kit, according to the manufacturer’s instructions. Barcoded libraries were combined to a final concentration of 100 p.m., and used to prepare Template-Positive Ion Sphere™ (Thermo Fisher Scientific, Waltham, MA) Particles to load on Ion 540™ Chips, using the Ion 540™ Kit-Chef (Thermo Fisher Scientific, Waltham, MA). Sequencing was performed on an Ion S5™ Sequencer with Torrent Suite™ Software v6 (Thermo Fisher Scientific, Waltham, MA). The analyses were performed with a range of fold <−2 and >+2 and a p value <0.05, using Transcriptome Analysis Console Software (version 4.0.1), certified for AmpliSeq analysis (Thermo-Fisher). The transcriptomic data have been deposited as dataset on Mendeley data repository (reference number linking to the repository: Fiorucci, Stefano; Biagioli, Michele; Marchianò, Silvia; Di Giorgio, Cristina (2021), “Discovery of potent dual GPBAR1/CysLT1R modulator for the treatment of metabolic fatty liver disease,” Mendeley Data, V1, doi: 10.17632/6dnrk9fc72.1).

[1] = HFD-F mice, 30 mg/kg/day by gavage
[2] = in comparison to untreated mice

O=C(O)c1cccc(-c2ccc(OCc3ccc4ccccc4n3)cc2)c1 [Compound 2, 4'-(quinolin-2-ylmethoxy)-[1,1′-biphenyl]-3-carboxylic acid]
liver expression of Alox5 [1]: downregulated
liver expression of Col1α1 [1]: reversed
liver expression of Elov5, Mogat1, fabp2, Cd36, Me1, and Cidea [1]: reduced significantly
liver expression of FXR and its target genes Shp and Bsep [1]: no effect
liver expression of Fasn [1]: reduced significantly
liver expression of Fgf21 [1]: decreased
liver expression of Srepb1f [1]: no effect
liver expression of αSma [1]: reversed
liver expression of Cyp7a1 (HFD-F mice, 30 mg/kg/day by gavage, 30 mg/kg/day): potently increased
number of liver genes modulated compared to HFD-F alone (fold change <−2 or >2, p value < 0.05): 154
liver expression of Pparα [2]: increased
liver expression of Pparγ [2]: increased
1810011O10Rik transcript Avg (log2) (liver, HFD + compound 2): 5.22 log2
2310001K24Rik transcript Avg (log2) (liver, HFD + compound 2): 2.22 log2
2310039H08Rik transcript Avg (log2) (liver, HFD + compound 2): 3.92 log2
4833423E24Rik transcript Avg (log2) (liver, HFD + compound 2): 1.1 log2
6430573F11Rik transcript Avg (log2) (liver, HFD + compound 2): 1.17 log2
AW549542 transcript Avg (log2) (liver, HFD + compound 2): 6.06 log2
Abcb1a transcript Avg (log2) (liver, HFD + compound 2): 2.24 log2
Acod1 transcript Avg (log2) (liver, HFD + compound 2): 0.24 log2
Acot3 transcript Avg (log2) (liver, HFD + compound 2): 1.85 log2
Adam8 transcript Avg (log2) (liver, HFD + compound 2): 0.63 log2
Adam11 transcript Avg (log2) (liver, HFD + compound 2): 7.79 log2
Anxa2 transcript Avg (log2) (liver, HFD + compound 2): 4.37 log2
Apcs transcript Avg (log2) (liver, HFD + compound 2): 6.13 log2
Arntl transcript Avg (log2) (liver, HFD + compound 2): 1.77 log2
Arsg transcript Avg (log2) (liver, HFD + compound 2): 4.36 log2
Atp1a3 transcript Avg (log2) (liver, HFD + compound 2): 0.63 log2
Aurka transcript Avg (log2) (liver, HFD + compound 2): 0.66 log2
Avpr1a transcript Avg (log2) (liver, HFD + compound 2): 3.76 log2
Bcat1 transcript Avg (log2) (liver, HFD + compound 2): 0 log2
C920009B18Rik transcript Avg (log2) (liver, HFD + compound 2): 0.43 log2
Cabyr transcript Avg (log2) (liver, HFD + compound 2): 3.88 log2
Capn11 transcript Avg (log2) (liver, HFD + compound 2): 2.07 log2
Ccl2 transcript Avg (log2) (liver, HFD + compound 2): 2.2 log2
Ccl3 transcript Avg (log2) (liver, HFD + compound 2): 1.68 log2
Ccl4 transcript Avg (log2) (liver, HFD + compound 2): 0.13 log2
Ccl7 transcript Avg (log2) (liver, HFD + compound 2): 0.8 log2
Ccl9 transcript Avg (log2) (liver, HFD + compound 2): 5.17 log2
Cd9 transcript Avg (log2) (liver, HFD + compound 2): 5.07 log2
Cd14 transcript Avg (log2) (liver, HFD + compound 2): 2.99 log2
Cd36 transcript Avg (log2) (liver, HFD + compound 2): 4.05 log2
Cd63 transcript Avg (log2) (liver, HFD + compound 2): 2.97 log2
Cdk1 transcript Avg (log2) (liver, HFD + compound 2): 1.66 log2
Cdkl2 transcript Avg (log2) (liver, HFD + compound 2): 1.24 log2
Cdkn1a transcript Avg (log2) (liver, HFD + compound 2): 1.4 log2
Cdkn3 transcript Avg (log2) (liver, HFD + compound 2): 0.2 log2
Ces2b transcript Avg (log2) (liver, HFD + compound 2): 4.12 log2
Cetn4 transcript Avg (log2) (liver, HFD + compound 2): 1.14 log2
Chka transcript Avg (log2) (liver, HFD + compound 2): 4.93 log2
Chrna4 transcript Avg (log2) (liver, HFD + compound 2): 2.32 log2
Cidea transcript Avg (log2) (liver, HFD + compound 2): 0.78 log2
Cidec transcript Avg (log2) (liver, HFD + compound 2): 5.15 log2
Cirbp transcript Avg (log2) (liver, HFD + compound 2): 6.69 log2
Ckap2 transcript Avg (log2) (liver, HFD + compound 2): 0.6 log2
Clec4e transcript Avg (log2) (liver, HFD + compound 2): 0.33 log2
Clec4d transcript Avg (log2) (liver, HFD + compound 2): 0.27 log2
Col27a1 transcript Avg (log2) (liver, HFD + compound 2): 6.19 log2
Csf3 transcript Avg (log2) (liver, HFD + compound 2): 0.06 log2
Cxcl2 transcript Avg (log2) (liver, HFD + compound 2): 1 log2
Cyp1a2 transcript Avg (log2) (liver, HFD + compound 2): 11.93 log2
Cyp2a5 transcript Avg (log2) (liver, HFD + compound 2): 10.52 log2
Cyp7a1 transcript Avg (log2) (liver, HFD + compound 2): 9.39 log2
Cyp17a1 transcript Avg (log2) (liver, HFD + compound 2): 4.11 log2
D17H6S56E-5 transcript Avg (log2) (liver, HFD + compound 2): 1.96 log2
Dbp transcript Avg (log2) (liver, HFD + compound 2): 7.05 log2
Defb1 transcript Avg (log2) (liver, HFD + compound 2): 1.19 log2
Derl2 transcript Avg (log2) (liver, HFD + compound 2): 4.75 log2
Dhrs9 transcript Avg (log2) (liver, HFD + compound 2): 1.65 log2
Dtx4 transcript Avg (log2) (liver, HFD + compound 2): 2.62 log2
Dusp8 transcript Avg (log2) (liver, HFD + compound 2): 1.5 log2
Egr1 transcript Avg (log2) (liver, HFD + compound 2): 3.52 log2
Ell transcript Avg (log2) (liver, HFD + compound 2): 5.75 log2
Elovl3 transcript Avg (log2) (liver, HFD + compound 2): 8.94 log2
Elovl5 transcript Avg (log2) (liver, HFD + compound 2): 9.72 log2
Ephb2 transcript Avg (log2) (liver, HFD + compound 2): 0.78 log2
Epm2aip1 transcript Avg (log2) (liver, HFD + compound 2): 2.63 log2
Fam57a transcript Avg (log2) (liver, HFD + compound 2): 2.02 log2
Fgf21 transcript Avg (log2) (liver, HFD + compound 2): 2.1 log2
Fxyd2 transcript Avg (log2) (liver, HFD + compound 2): 0.72 log2
